Test results: patent US20100292205A1, “Pyrimidone Compounds As GSK-3 Inhibitors” (PFIZER INC., priority 2006, published 2010)

Target: T1, Recombinant human GSK3β (Homo sapiens, UniProt P49841)
T1 construct: His-tag; made in house; host or cells: Sf9 insect cells / baculovirus
Assay: GSK-3β (Glycogen Synthase Kinase) cell free enzyme assay
Assay type: biochemical
Conditions: 1 μM; Examples 236-262
Procedure: Assay Protocol for GSK-3β (Glycogen Synthase Kinase) in a Cell Free Enzyme Assay
Recombinant human GSK3β was expressed in SF9/Baculo virus cells. His-tag protein was purified by affinity chromatography to a Ni-NTA Superflow column. Enzyme activity was assayed as the incorporation of [33P] from the gamma phosphate of [33P]ATP (PerkinElmer) into biotinylated peptide substrate bio-LC-S-R-H-S-S-P-H-Q-pS-E-D-E-E-E-OH (Anaspec). Reactions were carried out in a buffer containing 8 mM MOPS (pH 7.0), 10 mM Magnesium Acetate, 0.2 mM EDTA, 1 mM DTT and 2 uM cold ATP. The 33P-ATP was added for 0.025 uCi/well (120 uL) and the final concentration of substrate was 1.0 uM. Enzyme was preincubated with test agent for 30 minutes at room temperature followed by initiation of the reaction by the addition of substrate mix. Incubations were carried out at RT for 60 min. Reactions were stopped by addition of 0.66 volume of buffer containing: 12.5 mM EDTA, 0.25% Triton-X 100, 125 uM ATP, and 6.2 mg/ml streptavidin coated SPA beads (Amersham) in PBS without Ca or Mg. Radioactivity associated with the beads was quantified by scintillation counting of CPM in a Trilux counter (PerkinElmer).
Examples 42 to 60 were prepared using the analogous procedure described to prepare Example 41, substituting the appropriate starting material (Examples 1 to 35) and coupling with the appropriate acid. The assay protocol used is the percent inhibition at 1 μM for GSK-3β in the cell free enzyme assay described above.

T1 sequence (P49841 whole entry): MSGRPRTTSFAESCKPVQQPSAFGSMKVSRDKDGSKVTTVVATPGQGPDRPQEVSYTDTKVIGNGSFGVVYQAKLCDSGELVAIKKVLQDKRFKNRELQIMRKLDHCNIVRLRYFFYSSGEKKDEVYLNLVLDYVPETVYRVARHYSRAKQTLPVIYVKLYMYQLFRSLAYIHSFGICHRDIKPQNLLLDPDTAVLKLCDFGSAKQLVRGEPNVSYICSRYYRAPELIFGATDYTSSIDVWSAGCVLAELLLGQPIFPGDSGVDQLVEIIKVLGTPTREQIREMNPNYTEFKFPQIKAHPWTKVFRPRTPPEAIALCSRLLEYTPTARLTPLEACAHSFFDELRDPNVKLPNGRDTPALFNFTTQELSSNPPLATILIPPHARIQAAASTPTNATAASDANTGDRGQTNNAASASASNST

With “2-[(1R,5S)-3-Benzyl- 38- diazabicyclo[3.2.1]oct- 8-yl]-3-methyl-6- pyridin-4-ylpyrimidin- 4(3H)-one [Example 250]” the “Percent inhibition at 1 μM” value was 69%.

Same assay, conditions: 1 μM; GSK-3β cell free enzyme assay; Examples 42-60

“2-{[(3a,S5,S7,aR)-1- Acetyl-3a- methyloctahydro-1H- indol-5- yl](methyl)amino}-3- methyl-6-pyridin-4- ylpyrimidin-4(3H)-one [Example 50]” was tested, and the “Percent inhibition at 1 μM” value was 82%.

Same assay, conditions: cell free enzyme assay; Examples 1-35

First: Cn1c(N2CC[C@@](O)(c3ccccc3)[C@H]3CCCC[C@H]32)nc(-c2ccncc2)cc1=O [Example 1, 2-[(4S,4aS,8aR)-4-Hydroxy-4-phenyloctahydro-quinolin-1(2H)-yl]-3-methyl-6-pyridin-4-ylpyrimidin-4(3H)-one]
Second: Cn1c(N2CCN(C(=O)OC(C)(C)C)[C@@H]3CCCC[C@H]32)nc(-c2ccncc2)cc1=O [Example 25, tert-butyl (4aR,8aR)-4-(1-Methyl-6-oxo-4-pyridin-4-yl-1,6-dihydropyrimidin-2-yl)octahydroquinox-aline-1(2H)-carboxylate]
The IC50 of the first is 57-fold lower: 0.7 nM for the first, 40 nM for the second.

Going from `Cn1c(N[C@H]2[C@@H]3CN(C(=O)OC(C)(C)C)C[C@@H]32)nc(-c2ccncc2)cc1=O` [Example 2, tert-butyl (1R,5S,6s)-6-[(1-Methyl-6-oxo-4-pyridin-4-yl-1,6-dihydropyrimidin-2-yl)amino]-3-azabicyclo[3.1.0] hexane-3-carboxylate] to `Cn1c(N[C@H]2CN(C(=O)OC(C)(C)C)C[C@@H]2F)nc(-c2ccncc2)cc1=O` [Example 17, tert-butyl (3S,4S)-3-Fluoro-4-[(1-methyl-6-oxo-4-pyridin-4-yl-1,6-dihydropyrimidin-2-yl)amino]pyrrolidine-1-carboxylate], the IC50 rises from 2.2 nM to 26.3 nM (12-fold). The first is the more potent here.

`Cn1c(NCC2OCCc3ccccc32)nc(-c2ccncc2)cc1=O` (stereo not shown) [Example 3, 2-[(3,4-dihydro-1H-Isochromen-1-ylmethyl)amino]-3-methyl-6-pyridin-4-ylpyrimidin-4(3H)-one] and `Cn1c(N[C@H]2Cc3ccccc3NC2=O)nc(-c2ccncc2)cc1=O` [Example 9, (3S)-3-[(1-Methyl-6-oxo-4-pyridin-4-yl-1,6-dihydropyrimidin-2-yl)amino]-3,4-dihydroquinolin-2(1H)-one] are within 1.5-fold of each other in IC50: 23 nM for the first, 30 nM for the second.

Going from `CCN(C[C@@H]1CCCN1C(=O)OC(C)(C)C)c1nc(-c2ccncc2)cc(=O)n1C` [Example 4, tert-butyl (2S)-2-{[Ethyl(1-methyl-6-oxo-4-pyridin-4-yl-1,6-dihydropyrimidin-2-yl)amino]methyl} pyrrolidine-1-carboxylate] to `CCN(C[C@H]1CCCN1C(=O)OC(C)(C)C)c1nc(-c2ccncc2)cc(=O)n1C` [Example 5, tert-butyl (2R)-2-{[Ethyl(1-methyl-6-oxo-4-pyridin-4-yl-1,6-dihydropyrimidin-2-yl)amino]methyl} pyrrolidine-1-carboxylate], the IC50 falls from 4.2 nM to 2.1 nM (2-fold).

First: Cn1c(N[C@H]2[C@@H]3CN(C(=O)OC(C)(C)C)C[C@@H]32)nc(-c2ccncc2)cc1=O [Example 6, tert-butyl (1R,5S,6s)-6-[(1-Methyl-6-oxo-4-pyridin-4-yl-1,6-dihydropyrimidin-2-yl)amino]-3-azabicyclo[3.1.0] hexane-3-carboxylate]
Second: Cn1c(NC2CCN(C(=O)OC(C)(C)C)C2)nc(-c2ccncc2)cc1=O (stereo not shown) [Example 24, tert-butyl 3-[(1-Methyl-6-oxo-4-pyridin-4-yl-1,6-dihydropyrimidin-2-yl)amino]pyrrolidine-1-carboxylate]
The IC50 of the first is 15-fold lower: 2.8 nM for the first, 43 nM for the second.

First: CC1c2cccn2CCN1c1nc(-c2ccncc2)cc(=O)n1C (stereo not shown) [Example 7, 3-Methyl-2-(1-methyl-3,4-dihydropyrrolo[1,2-a]pyrazin-2(1H)-yl)-6-pyridin-4-ylpyrimidin-4(3H)-one]
Second: Cn1c(N2CCc3ccccc3C2Cc2ccccc2)nc(-c2ccncc2)cc1=O (stereo not shown) [Example 22, 2-(1-Benzyl-3,4-dihydroisoquinolin-2(1H)-yl)-3-methyl-6-pyridin-4-ylpyrimidin-4(3H)-one]
The IC50 of the first is 3.5-fold lower: 10.7 nM for the first, 37 nM for the second.

Going from `Cn1c(NC2CCCN(C(=O)OC(C)(C)C)CC2)nc(-c2ccncc2)cc1=O` (stereo not shown) [Example 8, tert-butyl 4-[(1-Methyl-6-oxo-4-pyridin-4-yl-1,6-dihydropyrimidin-2-yl)amino]azepane-1-carboxylate] to `Cn1c(NC2CCCN(C(=O)OC(C)(C)C)C2)nc(-c2ccncc2)cc1=O` (stereo not shown) [Example 19, tert-butyl 3-[(1-Methyl-6-oxo-4-pyridin-4-yl-1,6-dihydropyrimidin-2-yl)amino]piperidine-1-carboxylate], the IC50 rises from 9.1 nM to 42 nM (4.6-fold).

First: CN(c1nc(-c2ccncc2)cc(=O)n1C)C1CCCN(C(=O)OC(C)(C)C)CC1 (stereo not shown) [Example 10, tert-butyl 4-[Methyl(1-methyl-6-oxo-4-pyridin-4-yl-1,6-dihydropyrimidin-2-yl)amino]azepane-1-carboxylate]
Second: CCN(c1nc(-c2ccncc2)cc(=O)n1C)C1CCCN(C(=O)OC(C)(C)C)CC1 (stereo not shown) [Example 15, tert-butyl 4-[Ethyl(1-methyl-6-oxo-4-pyridin-4-yl-1,6-dihydropyrimidin-2-yl)amino]azepane-1-carboxylate]
The IC50 of the first is 2.2-fold lower: 14.4 nM for the first, 31 nM for the second. The first is the more potent here.

`CN(c1nc(-c2ccncc2)cc(=O)n1C)C1CCN(C(=O)OC(C)(C)C)C1` (stereo not shown) [Example 11, tert-butyl 3-[Methyl(1-methyl-6-oxo-4-pyridin-4-yl-1,6-dihydropyrimidin-2-yl)amino]pyrrolidine-1-carboxylate] and `CCN(c1nc(-c2ccncc2)cc(=O)n1C)C1CCN(C(=O)OC(C)(C)C)C1` (stereo not shown) [Example 13, tert-butyl 3-[Ethyl(1-methyl-6-oxo-4-pyridin-4-yl-1,6-dihydropyrimidin-2-yl)amino]pyrrolidine-1-carboxylate] are within 1.5-fold of each other in IC50: 17.7 nM for the first, 16.5 nM for the second.

Going from `Cn1c(N2[C@@H]3CC[C@H]2CN(C(=O)OC(C)(C)C)C3)nc(-c2ccncc2)cc1=O` [Example 12, tert-butyl (1R,5S)-8-(1-Methyl-6-oxo-4-pyridin-4-yl-1,6-dihydropyrimidin-2-yl)-3,8-diazabicyclo[3.2.1] octane-3-carboxylate] to `Cn1c(N2CC[C@@H]3CN(C(=O)OC(C)(C)C)C[C@@H]32)nc(-c2ccncc2)cc1=O` [Example 26, tert-butyl (3aR,6aR)-1-(1-Methyl-6-oxo-4-pyridin-4-yl-1,6-dihydropyrimidin-2-yl)hexahydropyrrolo [3,4-b]pyrrole-5(1H)-carboxylate], the IC50 rises from 32.4 nM to 97 nM (3-fold). The first is the more potent here.

`Cn1c(NC[C@H]2CCN(C(=O)OC(C)(C)C)C2)nc(-c2ccncc2)cc1=O` [Example 14, tert-butyl (3R)-3-{[(1-Methyl-6-oxo-4-pyridin-4-yl-1,6-dihydropyrimidin-2-yl)amino]methyl} pyrrolidine-1-carboxylate] and `Cn1c(NCC2CCCN2C(=O)OC(C)(C)C)nc(-c2ccncc2)cc1=O` (stereo not shown) [Example 18, tert-butyl 2-{[(1-Methyl-6-oxo-4-pyridin-4-yl-1,6-dihydropyrimidin-2-yl)amino]methyl} pyrrolidine-1-carboxylate] are within 1.5-fold of each other in IC50: 74 nM for the first, 108 nM for the second.

`Cn1c(N2[C@@H]3CC[C@H]2CC(n2cnc4ccccc42)C3)nc(-c2ccncc2)cc1=O` (stereo partly drawn) [Example 16, 2-[(1R,5S)-3-(1H-Benzimidazol-1-yl)-8-azabicyclo[3.2.1]oct-8-yl]-3-methyl-6-pyridin-4-ylpyrimidin-4(3H)-one] and `Cn1c(NCCc2nc(-c3ccccc3)cs2)nc(-c2ccncc2)cc1=O` [Example 29, 3-Methyl-2-{[2-(4-phenyl-1,3-thiazol-2-yl)ethyl]amino}-6-pyridin-4-ylpyrimidin-4(3H)-one] are within 1.5-fold of each other in IC50: 20.5 nM for the first, 16 nM for the second.

Going from `Cn1c(NC2CCCCN(C(=O)OC(C)(C)C)C2)nc(-c2ccncc2)cc1=O` (stereo not shown) [Example 20, tert-butyl 3-[(1-Methyl-6-oxo-4-pyridin-4-yl-1,6-dihydropyrimidin-2-yl)amino]azepane-1-carboxylate] to `Cn1c(N[C@@H]2CC[C@@H](NC(=O)OC(C)(C)C)C2)nc(-c2ccncc2)cc1=O` [Example 21, tert-butyl {(1R,3R)-3-[(1-Methyl-6-oxo-4-pyridin-4-yl-1,6-dihydropyrimidin-2-yl)amino]cyclopentyl} carbamate], the IC50 rises from 24.1 nM to 52.5 nM (2.2-fold). The first is the more potent here.

Compared with `CN(c1nc(-c2ccncc2)cc(=O)n1C)[C@H]1CC[C@H]2NCC[C@@]2(C)C1` [Example 23, 3-methyl-2-{Methyl[(3aS,5S,7aR)-3a-methyloctahydro-1H-indol-5-yl]amino}-6-pyridin-4-ylpyrimidin-4(3H)-one], `COc1cccc2c1CC[C@@H](Nc1nc(-c3ccncc3)cc(=O)n1C)[C@H]2C` [Example 28, 2-{[(1S,2R)-5-Methoxy-1-methyl-1,2,3,4-tetrahydronaphthalen-2-yl]amino}-3-methyl-6-pyridin-4-ylpyrimidin-4(3H)-one] is 12-fold lower in IC50: 47 nM for the first, 3.9 nM for the second. The second is the more potent here.

With `Cn1c(NC2(c3cccc(C(C)(C)C)c3)CCOCC2)nc(-c2ccncc2)cc1=O` [Example 27, 2-{[4-(3-tert-Butylphenyl)tetra-hydro-2H-pyran-4-yl]amino}-3-methyl-6-pyridin-4-ylpyrimidin-4(3H)-one] the IC50 was 12 nM.
